Measurements reported in patent US5494893A, “Stylostatin 2” (Arizona Board of Regents, a body corporate acting on behalf …, priority 1994, dated 1996).
In brackets after ≈: the same amount, converted by molar mass. Where a SMILES comes first, the peptide text is derived from it.

Assays:
[1] = test system: murine P388 lymphocytic leukemia (PS system) cell line; conditions: earlier reported work (J. Org. Chem. 1992); cited from earlier work
[2] = test system: U.S. National Cancer Institute panel of 60 human cancer cell lines; test: NCI panel of 60 human cancer cell lines, growth inhibition; type: cell-based; conditions: NCI 60 cell line panel, quadruplicate tests, average over panel, 48 hours; read-out: overall panel-averaged GI50 concentration
Source text: (§1) Current research in the control of cancer in the United States is coordinated by the National Cancer Institute (NCI). To determine whether a substance has anti-cancer properties, the NCI has established a systematic protocol. This protocol, which involves the testing of a substance against a standard cell line panel containing 60 human tumor cell lines, has been verified and has been accepted in scientific circles. The protocol, and the established statistical means for analyzing the results obtained by the standardized testing are fully described in the literature. See: Boyd, Dr. Michael R., Principles & Practice of Oncology, PPO Updates, Volume 3, Number 10, Oct. […]
(§2) Each drug is tested at five (5) doses: 100--10--1--0.1--0.01 μg/ml. Percent Growths are calculated for each dose. […]
(§3) At the start of an experiment, cells from the in vitro cell cultures are inoculated into the appropriate tubes or microtiter plates. One set of control tubes/plates is immediately counted to determine the number of cells at the start of the experiment. This is the "baseline count", or "Tzero reading". At the end of the experiment (48 hours later), a second set of control tubes/plates is analyzed to determine the "Control Growth" value. The growth (or death) of cells relative to the initial quantity of cells is used to define the "Percent of Growth".

OVCAR 3 = OVCAR 3 human cancer cell growth inhibition; type: cell-based; conditions: OVCAR 3 cell line
Source text: as §1, §2, §3

Row | Compound | P388 (PS system) cell line inhibition [1] | GI50 [2] [µM] | GI50 (OVCAR 3) [µg/mL]
1 | cyclo (Pro-Phe-Asn-Ser-Leu-Ala-Ile) (PFNSLAI; head-to-tail cyclic; printed: Pro-Phe-Asn-Ser-Leu-Ala-Ile) [stylostatin 1, cycloheptapeptide earlier isolated from the same Stylotella sp. sponge] | inhibitor | – | –
2 | CC[C@H](C)[C@@H]1NC(=O)[C@H](CC(C)C)NC(=O)[C@@H]2CCCN2C(=O)[C@H]([C@@H](C)CC)NC(=O)[C@@H]2CCCN2C(=O)[C@H](CO)NC(=O)[C@H](Cc2ccccc2)NC1=O [stylostatin 2, cyclo (Pro-Leu-Ile-Phe-Ser-Pro-Ile)] (cyclo(FSPIPLI)) | – | 6.2 | 3.7 (≈ 4.82 µM)
